Results as given in ChEMBL document CHEMBL3853350 (ACS Med Chem Lett, 2016).

What was measured:
[1] = Half life in mouse hepatocytes at 1 uM by LC/MS analysis; type: ADME, cell-based, Hepatocyte
[2] = Fraction unbound in monkey plasma at 1 uM after 5 hrs by rapid equilibrium dialysis based LC-MS/MS analysis; type: ADME, cell-free, Macaca mulatta; details: rhesus monkey
Salmonella typhimurium = test: Genotoxicity in Salmonella typhimurium by Ames test; type: toxicity, organism-based; details: salmonella enterica subsp. enterica serovar typhimurium
[3] = molecular target: Voltage-gated inwardly rectifying potassium channel KCNH2 (Homo sapiens, UniProt Q12809); test: Inhibition of human ERG
[4] = Apparent permeability from apical to basolateral side in human Caco2 cells at 10 uM by lucifer yellow flux assay; type: ADME, cell-based; details: Caco-2
[5] = Fraction unbound in human plasma at 1 uM after 5 hrs by rapid equilibrium dialysis based LC-MS/MS analysis; type: ADME, cell-free
[6] = Fraction unbound in mouse plasma at 1 uM after 5 hrs by rapid equilibrium dialysis based LC-MS/MS analysis; type: ADME, cell-free
[7] = Fraction unbound in rat plasma at 1 uM after 5 hrs by rapid equilibrium dialysis based LC-MS/MS analysis; type: ADME, cell-free
[8] = Fraction unbound in dog plasma at 1 uM after 5 hrs by rapid equilibrium dialysis based LC-MS/MS analysis; type: ADME, cell-free, Canis lupus familiaris
Cytochrome P450 2C8 = molecular target: T1, Cytochrome P450 2C8 (Homo sapiens, UniProt P10632); test: Inhibition of CYP2C8 in human liver microsomes after 5 mins in presence of NADPH by LC-MS/MS analysis; type: ADME
T1 sequence (P10632 whole entry): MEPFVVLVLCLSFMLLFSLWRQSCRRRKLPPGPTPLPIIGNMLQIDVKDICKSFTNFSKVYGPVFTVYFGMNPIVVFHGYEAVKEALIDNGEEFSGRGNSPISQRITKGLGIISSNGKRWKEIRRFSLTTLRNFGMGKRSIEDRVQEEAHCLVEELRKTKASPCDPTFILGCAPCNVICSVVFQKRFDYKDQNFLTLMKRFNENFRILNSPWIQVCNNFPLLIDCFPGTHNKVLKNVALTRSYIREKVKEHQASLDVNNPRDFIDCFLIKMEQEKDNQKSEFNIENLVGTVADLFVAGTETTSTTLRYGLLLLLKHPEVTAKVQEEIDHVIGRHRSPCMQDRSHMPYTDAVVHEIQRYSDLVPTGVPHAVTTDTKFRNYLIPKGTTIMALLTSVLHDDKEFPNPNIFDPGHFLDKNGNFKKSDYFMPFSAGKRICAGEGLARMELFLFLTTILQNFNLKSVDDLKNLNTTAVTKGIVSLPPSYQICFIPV

Cytochrome P450 2C9 = Cytochrome P450 2C9 (Homo sapiens, UniProt P11712); test: Inhibition of CYP2C9 in human liver microsomes after 5 mins in presence of NADPH by LC-MS/MS analysis; type: ADME
Cytochrome P450 2C19 = Cytochrome P450 2C19 (Homo sapiens, UniProt P33261); test: Inhibition of CYP2C19 in human liver microsomes after 5 mins in presence of NADPH by LC-MS/MS analysis; type: ADME
Cytochrome P450 2D6 = Cytochrome P450 2D6 (Homo sapiens, UniProt P10635); test: Inhibition of CYP2D6 in human liver microsomes after 5 mins in presence of NADPH by LC-MS/MS analysis; type: ADME
Cytochrome P450 3A4 = Cytochrome P450 3A4 (Homo sapiens, UniProt P08684); test: Inhibition of CYP3A4 in human liver microsomes after 5 mins in presence of NADPH by LC-MS/MS analysis; type: ADME
[9] = Cmax in CD-1 mouse plasma at 5 mg/kg administered via oral gavage measured 24 hrs post dose by LC/MS/MS analysis; type: ADME, organism-based; set-up: dose 5 mg/kg, route oral
[10] = AUC (0 to infinity) in CD-1 mouse plasma at 5 mg/kg administered via oral gavage measured 24 hrs post dose by LC/MS/MS analysis; type: ADME, organism-based; set-up: dose 5 mg/kg, time infinity, route oral
[11] = Oral bioavailability in CD-1 mouse plasma at 5 mg/kg measured 24 hrs post dose by LC/MS/MS analysis; type: ADME, organism-based
[12] = Cmax in Sprague-Dawley rat plasma at 5 mg/kg administered via oral gavage measured 24 hrs post dose by LC/MS/MS analysis; type: ADME, organism-based; set-up: dose 5 mg/kg, route oral
[13] = AUC (0 to infinity) in Sprague-Dawley rat plasma at 5 mg/kg administered via oral gavage measured 24 hrs post dose by LC/MS/MS analysis; type: ADME, organism-based; set-up: dose 5 mg/kg, time infinity, route oral
[14] = Half life in Sprague-Dawley rat plasma at 1 mg/kg, iv by LC/MS/MS analysis; type: ADME, organism-based
[15] = Clearance in Sprague-Dawley rat plasma at 1 mg/kg, iv measured 24 hrs post dose by LC/MS/MS analysis; type: ADME, organism-based
[16] = Volume of distribution at steady state in Sprague-Dawley rat plasma at 1 mg/kg, iv measured 24 hrs post dose by LC/MS/MS analysis; type: ADME, organism-based; details: read-out: Vdss
[17] = Oral bioavailability in Sprague-Dawley rat plasma at 5 mg/kg measured 24 hrs post dose by LC/MS/MS analysis; type: ADME, organism-based
[18] = Cmax in Beagle dog plasma at […] administered via oral gavage measured 24 hrs post dose by LC/MS/MS analysis; type: ADME, organism-based, Canis lupus familiaris; set-up: dose 2.5 mg/kg, route oral
[19] = Half life in Beagle dog plasma at 0.5 mg/kg, iv by LC/MS/MS analysis; type: ADME, organism-based, Canis lupus familiaris
[20] = Clearance in Beagle dog plasma at 0.5 mg/kg, iv measured 24 hrs post dose by LC/MS/MS analysis; type: ADME, organism-based, Canis lupus familiaris
[21] = Volume of distribution at steady state in Beagle dog plasma at 0.5 mg/kg, iv measured 24 hrs post dose by LC/MS/MS analysis; type: ADME, organism-based, Canis lupus familiaris; details: read-out: Vdss
[22] = Oral bioavailability in Beagle dog plasma at […] measured 24 hrs post dose by LC/MS/MS analysis; type: ADME, organism-based, Canis lupus familiaris
[23] = Cmax in cynomolgus monkey plasma at […] administered via oral gavage measured 24 hrs post dose by LC/MS/MS analysis; type: ADME, organism-based, Macaca fascicularis; set-up: dose 2.5 mg/kg, route oral
[24] = AUC (0 to infinity) in cynomolgus monkey plasma at […] administered via oral gavage measured 24 hrs post dose by LC/MS/MS analysis; type: ADME, organism-based, Macaca fascicularis; set-up: dose 2.5 mg/kg, route oral, time infinity
[25] = Half life in cynomolgus monkey plasma at 0.5 mg/kg, iv by LC/MS/MS analysis; type: ADME, organism-based, Macaca fascicularis
[26] = Volume of distribution at steady state in cynomolgus monkey plasma at 0.5 mg/kg, iv measured 24 hrs post dose by LC/MS/MS analysis; type: ADME, organism-based, Macaca fascicularis; details: read-out: Vdss
[27] = Oral bioavailability in cynomolgus monkey plasma at […] measured 24 hrs post dose by LC/MS/MS analysis; type: ADME, organism-based, Macaca fascicularis

Sequence of Cytochrome P450 2C19 (P33261 whole entry): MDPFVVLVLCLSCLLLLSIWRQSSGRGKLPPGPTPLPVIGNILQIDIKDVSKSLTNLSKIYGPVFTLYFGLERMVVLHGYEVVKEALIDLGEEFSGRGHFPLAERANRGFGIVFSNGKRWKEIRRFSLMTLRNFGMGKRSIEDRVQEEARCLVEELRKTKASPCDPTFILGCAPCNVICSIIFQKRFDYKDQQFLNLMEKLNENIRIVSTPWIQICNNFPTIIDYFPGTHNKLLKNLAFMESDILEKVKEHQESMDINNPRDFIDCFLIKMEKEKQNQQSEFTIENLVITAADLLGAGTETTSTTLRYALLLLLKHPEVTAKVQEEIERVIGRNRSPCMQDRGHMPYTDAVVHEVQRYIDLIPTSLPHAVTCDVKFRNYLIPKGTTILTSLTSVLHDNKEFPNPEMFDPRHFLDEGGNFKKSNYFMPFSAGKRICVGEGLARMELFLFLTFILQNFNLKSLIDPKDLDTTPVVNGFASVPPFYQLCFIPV
Sequence of Cytochrome P450 2D6 (P10635 whole entry): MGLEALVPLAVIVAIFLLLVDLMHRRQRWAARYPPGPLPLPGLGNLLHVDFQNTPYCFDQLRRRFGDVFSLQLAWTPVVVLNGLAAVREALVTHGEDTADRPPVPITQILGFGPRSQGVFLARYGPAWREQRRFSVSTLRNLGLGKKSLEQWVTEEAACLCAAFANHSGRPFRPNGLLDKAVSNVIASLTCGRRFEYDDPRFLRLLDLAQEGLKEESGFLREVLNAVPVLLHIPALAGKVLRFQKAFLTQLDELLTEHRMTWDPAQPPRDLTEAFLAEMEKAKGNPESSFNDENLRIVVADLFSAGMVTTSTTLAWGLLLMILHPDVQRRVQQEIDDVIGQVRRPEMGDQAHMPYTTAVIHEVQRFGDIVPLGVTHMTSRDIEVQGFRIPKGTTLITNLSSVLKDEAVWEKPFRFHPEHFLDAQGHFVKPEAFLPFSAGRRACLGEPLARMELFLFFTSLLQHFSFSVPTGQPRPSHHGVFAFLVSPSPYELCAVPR
Sequence of Cytochrome P450 2C9 (P11712 whole entry): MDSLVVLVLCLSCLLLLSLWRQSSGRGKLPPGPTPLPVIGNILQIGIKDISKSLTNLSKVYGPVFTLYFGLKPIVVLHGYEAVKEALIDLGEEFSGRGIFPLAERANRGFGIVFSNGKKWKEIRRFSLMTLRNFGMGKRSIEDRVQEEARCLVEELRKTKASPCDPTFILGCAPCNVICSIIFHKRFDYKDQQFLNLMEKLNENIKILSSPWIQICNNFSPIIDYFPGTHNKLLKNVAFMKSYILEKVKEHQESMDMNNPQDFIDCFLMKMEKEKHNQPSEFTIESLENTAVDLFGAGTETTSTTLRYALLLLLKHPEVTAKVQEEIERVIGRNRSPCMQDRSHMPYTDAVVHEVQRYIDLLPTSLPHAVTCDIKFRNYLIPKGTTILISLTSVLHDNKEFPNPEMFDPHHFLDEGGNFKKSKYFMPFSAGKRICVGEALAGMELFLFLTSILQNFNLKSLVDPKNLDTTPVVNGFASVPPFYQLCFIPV
Sequence of Voltage-gated inwardly rectifying potassium channel KCNH2 (Q12809 whole entry): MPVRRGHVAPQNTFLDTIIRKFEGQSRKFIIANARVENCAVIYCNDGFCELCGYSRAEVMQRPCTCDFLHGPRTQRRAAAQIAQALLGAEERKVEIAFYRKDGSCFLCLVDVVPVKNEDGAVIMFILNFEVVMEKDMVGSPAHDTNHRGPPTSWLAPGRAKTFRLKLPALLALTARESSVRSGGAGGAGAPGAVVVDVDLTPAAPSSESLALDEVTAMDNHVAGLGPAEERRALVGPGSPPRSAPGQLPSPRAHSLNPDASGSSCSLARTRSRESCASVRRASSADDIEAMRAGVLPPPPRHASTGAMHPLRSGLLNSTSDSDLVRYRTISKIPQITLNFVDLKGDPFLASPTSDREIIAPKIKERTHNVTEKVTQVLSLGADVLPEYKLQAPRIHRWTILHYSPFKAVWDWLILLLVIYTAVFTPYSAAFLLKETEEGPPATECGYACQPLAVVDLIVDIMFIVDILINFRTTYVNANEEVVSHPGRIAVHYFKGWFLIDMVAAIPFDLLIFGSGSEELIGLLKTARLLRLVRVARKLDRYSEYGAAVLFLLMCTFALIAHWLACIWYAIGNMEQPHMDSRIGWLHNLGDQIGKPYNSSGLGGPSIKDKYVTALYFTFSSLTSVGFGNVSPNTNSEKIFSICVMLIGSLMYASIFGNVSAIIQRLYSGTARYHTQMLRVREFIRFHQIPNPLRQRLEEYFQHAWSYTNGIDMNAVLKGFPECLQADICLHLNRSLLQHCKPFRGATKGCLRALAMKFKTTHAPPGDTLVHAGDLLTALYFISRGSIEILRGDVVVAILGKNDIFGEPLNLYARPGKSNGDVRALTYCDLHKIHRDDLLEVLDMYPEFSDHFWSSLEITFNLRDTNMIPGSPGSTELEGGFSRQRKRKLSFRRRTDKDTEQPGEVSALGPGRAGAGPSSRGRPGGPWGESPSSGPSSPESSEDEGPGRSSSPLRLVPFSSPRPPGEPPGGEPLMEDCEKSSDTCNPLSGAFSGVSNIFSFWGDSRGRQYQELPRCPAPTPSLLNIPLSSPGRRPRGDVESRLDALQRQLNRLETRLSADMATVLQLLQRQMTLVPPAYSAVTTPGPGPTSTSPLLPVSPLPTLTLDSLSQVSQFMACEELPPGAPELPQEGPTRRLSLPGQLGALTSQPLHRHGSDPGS
Sequence of Cytochrome P450 3A4 (P08684 whole entry): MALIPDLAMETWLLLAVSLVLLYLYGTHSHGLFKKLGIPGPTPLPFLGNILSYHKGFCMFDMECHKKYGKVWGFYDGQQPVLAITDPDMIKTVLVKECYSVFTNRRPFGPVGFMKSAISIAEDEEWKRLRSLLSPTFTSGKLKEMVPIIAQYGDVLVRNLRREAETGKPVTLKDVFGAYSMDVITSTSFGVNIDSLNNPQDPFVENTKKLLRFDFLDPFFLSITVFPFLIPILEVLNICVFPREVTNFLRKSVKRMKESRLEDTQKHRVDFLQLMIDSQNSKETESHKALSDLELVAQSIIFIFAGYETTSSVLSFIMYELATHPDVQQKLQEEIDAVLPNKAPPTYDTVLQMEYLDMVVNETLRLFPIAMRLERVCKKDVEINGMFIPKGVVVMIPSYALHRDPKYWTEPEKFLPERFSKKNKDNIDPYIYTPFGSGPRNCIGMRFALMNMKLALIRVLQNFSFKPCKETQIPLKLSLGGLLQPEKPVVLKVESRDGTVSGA

half-life at 1 µM [1]: > 6 h
fraction unbound at 5 h, 1 µM [2]: 0.04
Papp A→B at 10 µM [4]: 13 ×10⁻⁶ cm/s
fraction unbound at 5 h, 1 µM [5]: 0.011
fraction unbound at 5 h, 1 µM [6]: 0.022
fraction unbound at 5 h, 1 µM [7]: 0.028
fraction unbound at 5 h, 1 µM [8]: 0.028
IC50 (Cytochrome P450 2C8): > 20 µM
IC50 (Cytochrome P450 2C9): > 20 µM
IC50 (Cytochrome P450 2C19): > 20 µM
IC50 (Cytochrome P450 2D6): > 20 µM
IC50 (Cytochrome P450 3A4): > 20 µM
Cmax [9]: 3600 nM
AUC(0-inf) [10]: 20600 ng·h/mL
bioavailability [11]: 88%
Cmax [12]: 2000 nM
AUC(0-inf) [13]: 8050 ng·h/mL
half-life [14]: 4.4 h
clearance [15]: 4.4 mL/min/kg
Vd [16]: 1.2 L/kg
bioavailability [17]: 57%
Cmax at 24 h [18]: 1900 nM
half-life [19]: 6.7 h
clearance [20]: 2.8 mL/min/kg
Vd [21]: 1.3 L/kg
bioavailability at 24 h [22]: 65%
Cmax at 24 h [23]: 560 nM
AUC(0-inf) at 24 h [24]: 4030 ng·h/mL
half-life [25]: 4.3 h
Vd [26]: 1.3 L/kg
bioavailability at 24 h [27]: 31%
Compound: C[C@H](NC(=O)c1c(N)nn2cccnc12)c1cc2cccc(C#Cc3cnn(C)c3)c2c(=O)n1-c1ccccc1 [EGANELISIB]
Activity (Salmonella typhimurium): Non-Toxic
IC50 [3]: > 10 µM
